Assay [1] deals with Platelet-derived growth factor receptor (Homo sapiens) (UniProt P09619+P16234). As to the kind of experiment: Inhibitory activity on PDGF-induced ERK phosphorylation in NIH3T3 cells at 20 uM. In kind it is cell-based.
The target in assay [2] is Epidermal growth factor receptor (Homo sapiens) (UniProt P00533). The assay is described as follows: Inhibitory activity on EGF-induced ERK phosphorylation in prostate cancer PC3 cell line at 20 uM. It counts as cell-based. Particulars: PC-3.
Sequence of Epidermal growth factor receptor (Homo sapiens) (P00533 whole entry): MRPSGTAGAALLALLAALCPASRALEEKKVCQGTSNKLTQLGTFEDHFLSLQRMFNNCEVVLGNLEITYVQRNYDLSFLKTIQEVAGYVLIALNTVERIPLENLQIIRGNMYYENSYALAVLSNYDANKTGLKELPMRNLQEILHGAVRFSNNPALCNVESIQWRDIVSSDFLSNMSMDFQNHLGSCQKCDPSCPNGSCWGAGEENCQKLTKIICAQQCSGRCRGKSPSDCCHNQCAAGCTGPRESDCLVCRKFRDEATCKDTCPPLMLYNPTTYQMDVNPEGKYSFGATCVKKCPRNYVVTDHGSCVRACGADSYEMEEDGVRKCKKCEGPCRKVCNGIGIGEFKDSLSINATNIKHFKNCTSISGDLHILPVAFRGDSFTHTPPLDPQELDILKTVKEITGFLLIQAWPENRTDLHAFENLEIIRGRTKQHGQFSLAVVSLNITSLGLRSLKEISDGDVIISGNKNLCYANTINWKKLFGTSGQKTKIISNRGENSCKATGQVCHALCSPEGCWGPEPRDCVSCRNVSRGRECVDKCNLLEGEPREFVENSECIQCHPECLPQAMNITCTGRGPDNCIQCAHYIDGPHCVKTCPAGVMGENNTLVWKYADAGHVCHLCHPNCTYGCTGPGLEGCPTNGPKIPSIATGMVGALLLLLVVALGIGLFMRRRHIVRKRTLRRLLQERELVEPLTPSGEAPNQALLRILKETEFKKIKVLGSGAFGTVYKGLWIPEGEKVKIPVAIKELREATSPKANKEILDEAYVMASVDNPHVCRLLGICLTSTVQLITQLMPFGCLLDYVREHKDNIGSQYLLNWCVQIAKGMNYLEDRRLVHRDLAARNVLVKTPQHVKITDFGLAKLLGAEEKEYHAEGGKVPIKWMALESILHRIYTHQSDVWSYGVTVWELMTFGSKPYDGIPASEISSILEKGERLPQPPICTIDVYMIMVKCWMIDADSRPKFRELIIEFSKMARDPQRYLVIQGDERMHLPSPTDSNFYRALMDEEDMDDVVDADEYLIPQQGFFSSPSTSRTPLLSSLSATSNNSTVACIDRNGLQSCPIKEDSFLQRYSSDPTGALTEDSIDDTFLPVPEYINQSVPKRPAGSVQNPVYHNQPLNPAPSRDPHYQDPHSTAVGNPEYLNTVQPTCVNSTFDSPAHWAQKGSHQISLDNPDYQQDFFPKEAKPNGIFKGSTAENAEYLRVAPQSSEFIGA
The subject of the next assay is PC-3. As to the kind of experiment: Antiproliferative activity against prostate cancer PC3 cell line at 20 uM by MTT method. In kind it is functional. Conditions: Homo sapiens.
The test system of another assay is A-431. The assay is described as follows: Antiproliferative activity against human epidermal carcinoma A431 cell line at 20 uM by MTT method. It counts as functional. Background: Tetrazolium dyes change colour on reduction, which living cells bring about.
A further assay concerns Fusarium oxysporum. The assay is described as follows: Antifungal activity against Fusarium oxysporum at 0.5 mg/ml. In kind it is functional.
In the next assay the test system is Fusarium graminearum. As to the kind of experiment: Antifungal activity against Gibberella zeae at 0.5 mg/ml. In kind it is functional.
A further assay has as its system Phytophthora infestans. As to the kind of experiment: Antifungal activity against Phytopthora infestans at 0.5 mg/ml. It counts as functional.

As a reminder, the inhibition is the drop in the measured response relative to a control, in per cent.

The structures appear in SMILES notation. The source made the active and inactive calls. The rule behind the calls is not given here.

Regarding `O=C1c2cccc(O)c2C(=O)c2c(O)cc(CO)cc21` [ALOE-EMODIN], in assay [1], the result was inactive. The outcome in assay [2] was Active. Also, the inhibition at 20 µM came out at 63.4% in the assay with PC-3 and 73.6% in the assay on A-431. Further, the inhibition at 500 µg/mL in the assay with Fusarium oxysporum is 28.8%; in the assay on Fusarium graminearum, 37.1%; with Phytophthora infestans, 24.4%.
Regarding `Cc1cc(O)c2c(c1)C(=O)c1cc(O)cc(O)c1C2=O` [EMODIN], in assay [1], the result was inactive. For the same compound, the inhibition result with PC-3 and in the assay on A-431 was “inactive” each time. Besides, the inhibition at 500 µg/mL stood at 9.37% in the assay on Fusarium oxysporum, 25.7% in the assay with Fusarium graminearum and 21.2% in the assay with Phytophthora infestans.
With `COc1cc(O)c2c(c1)C(=O)c1cc(C)cc(O)c1C2=O` [PHYSCION], the result in assay [1] was inactive. In addition, the inhibition at 20 µM with PC-3 amounted to 73.2%; in the assay with A-431 it was 80.5%. Besides, the results for the inhibition at 500 µg/mL in the assay with Fusarium oxysporum, in the assay on Fusarium graminearum and in the assay with Phytophthora infestans were 0%, 10.1% and 19.1%, respectively.
Take `Cc1cc(O)c2c(c1)C(=O)c1cccc(O)c1C2=O` [CHRYSOPHANOL]: in assay [1], the outcome was inactive. Also, the inhibition at 20 µM in the assay with PC-3 was 19.5%; in the assay with A-431, 21.1%. Further, the inhibition at 500 µg/mL in the assay on Fusarium oxysporum is 5.4%; in the assay on Fusarium graminearum, 0%; with Phytophthora infestans, 2.4%.
Consider `O=C(O)c1cc(O)c2c(c1)C(=O)c1cccc(O)c1C2=O` [RHEIN], for which the outcome in assay [1] was inactive. Besides, in the assay with PC-3, the inhibition at 20 µM was 54.2%. Also, in the assay with A-431, the inhibition result was “inactive”. Besides, the inhibition at 500 µg/mL in the assay on Fusarium oxysporum was 39.8%; in the assay with Fusarium graminearum, 33.4%; in the assay on Phytophthora infestans, 39.5%.

Values taken from ChEMBL document CHEMBL1149401, “Isolation and inhibitory activity against ERK phosphorylation of hydroxyanthraquinones from rhubarb” (2006).
